In patent US9521850B2 (University of Florida Research Foundation, Incorporated, priority 2012, dated 2016):
≈ marks a conversion by molar mass, not a printed value.

Assays:
Rhizobium etli = assay: microbe, parasite or virus in culture; assay type: cell-based
Sinorhizobium meliloti = assay: microbe, parasite or virus in culture; assay type: cell-based
Bradyrhizobium japonicum = assay: microbe, parasite or virus in culture; assay type: cell-based
[1] = test system: Agrobacterium tumefaciens; assay: microbe, parasite or virus in culture; assay type: cell-based
Mesorhizobium loti = assay: microbe, parasite or virus in culture; assay type: cell-based
Liberibacter crescens = assay: microbe, parasite or virus in culture; assay type: cell-based
Xanthomonas citri = assay: microbe, parasite or virus in culture; assay type: cell-based, Xanthomonas citri subsp. citri
CLAS populations = assay: Effect on CLAS populations, mean Ct by quantitative PCR (Example 2)

SMILES | MBC (Rhizobium etli; 24 hrs) [µg/mL] | MIC (Rhizobium etli; 24 hrs) [µg/mL] | MBC (Rhizobium etli; 120 hrs) [µg/mL] | MIC (Rhizobium etli; 120 hrs) [µg/mL] | MBC (Sinorhizobium meliloti) [µg/mL] | MIC (Sinorhizobium meliloti) [µg/mL] | MBC (Bradyrhizobium japonicum; 24 hrs) [µg/mL] | MIC (Bradyrhizobium japonicum; 24 hrs) [µg/mL] | MBC (Bradyrhizobium japonicum; 120 hrs) [µg/mL] | MIC (Bradyrhizobium japonicum; 120 hrs) [µg/mL] | MBC [1] [µg/mL] | MIC [1] [µg/mL] | MBC (Mesorhizobium loti) [µg/mL] | MIC (Mesorhizobium loti) [µg/mL] | MBC (Liberibacter crescens; 24 h) [µg/mL] | MIC (Liberibacter crescens; 24 h) [µg/mL] | MBC (Liberibacter crescens; 120 h) [µg/mL] | MIC (Liberibacter crescens; 120 h) [µg/mL] | MBC (Xanthomonas citri) [µg/mL] | MIC (Xanthomonas citri) [µg/mL] | other results
COc1ccc(N(C(=O)c2ccc(-n3cnnn3)cc2)C2(C(=O)Nc3ccccc3C)CCCCC2)cc1 [SSC11, N-(4-methoxy-phenyl)-N-{1-[(2-methyl-phenyl)carbamoyl]cyclohexyl}-4-(1H-tetrazol-1-yl)benzamide] | 32 (≈ 62.7 µM) | 16 (≈ 31.3 µM) | 64 (≈ 125 µM) | 32 (≈ 62.7 µM) | 64 (≈ 125 µM) | 32 (≈ 62.7 µM) | 16 (≈ 31.3 µM) | 16 (≈ 31.3 µM) | 32 (≈ 62.7 µM) | 32 (≈ 62.7 µM) | 128 (≈ 251 µM) | 32 (≈ 62.7 µM) | 32 (≈ 62.7 µM) | 16 (≈ 31.3 µM) | 16 (≈ 31.3 µM) | 16 (≈ 31.3 µM) | 32 (≈ 62.7 µM) | 32 (≈ 62.7 µM) | 64 (≈ 125 µM) | 32 (≈ 62.7 µM) | –
O=C1CC(c2ccccc2)CC2=C1C(c1ccc(O)cc1)Nc1ccc(C(=O)c3ccccc3)cc1N2 (stereo not shown) [SA6, 7-Benzoyl-11-(4-hydroxy-phenyl)-3-phenyl-2,3,4,5,10,11-hexahydro-1H-dibenzo[b,e] [1,4]diazepin-1-one] | 32 (≈ 65.8 µM) | 32 (≈ 65.8 µM) | 64 (≈ 132 µM) | 64 (≈ 132 µM) | 32 (≈ 65.8 µM) | 32 (≈ 65.8 µM) | 32 (≈ 65.8 µM) | 16 (≈ 32.9 µM) | 32 (≈ 65.8 µM) | 32 (≈ 65.8 µM) | 64 (≈ 132 µM) | 16 (≈ 32.9 µM) | 32 (≈ 65.8 µM) | 16 (≈ 32.9 µM) | 16 (≈ 32.9 µM) | 16 (≈ 32.9 µM) | 64 (≈ 132 µM) | 32 (≈ 65.8 µM) | 128 (≈ 263 µM) | 64 (≈ 132 µM) | –
CC(C)[C@H](NC(=O)c1ccccc1)C(=O)Nc1cccc(-n2cnnn2)c1 [SA3, N-[(2S)-3-Methyl-1-oxo-1-{[3-(1H-tetrazol-1-yl)phenyl]amino}-2-butanyl] benzamide] | 32 (≈ 87.8 µM) | 32 (≈ 87.8 µM) | 64 (≈ 176 µM) | 64 (≈ 176 µM) | 64 (≈ 176 µM) | 32 (≈ 87.8 µM) | 32 (≈ 87.8 µM) | 16 (≈ 43.9 µM) | 64 (≈ 176 µM) | 32 (≈ 87.8 µM) | 64 (≈ 176 µM) | 32 (≈ 87.8 µM) | 32 (≈ 87.8 µM) | 16 (≈ 43.9 µM) | 16 (≈ 43.9 µM) | 8 (≈ 22 µM) | 32 (≈ 87.8 µM) | 16 (≈ 43.9 µM) | 128 (≈ 351 µM) | 64 (≈ 176 µM) | –
COc1ccc(NC(=O)C2(N(C(=O)c3ccc(-n4cnnn4)cc3)c3ccc(OC)cc3)CCCCC2)cc1 [SSC8, N-(4-methoxy-phenyl)-N-{1-[(4-methoxy-phenyl)carbamoyl]cyclohexyl}-4-(1H-tetrazol-1-yl)benzamide] | 32 (≈ 60.8 µM) | 16 (≈ 30.4 µM) | 64 (≈ 122 µM) | 32 (≈ 60.8 µM) | 32 (≈ 60.8 µM) | 16 (≈ 30.4 µM) | 16 (≈ 30.4 µM) | 8 (≈ 15.2 µM) | 32 (≈ 60.8 µM) | 16 (≈ 30.4 µM) | 64 (≈ 122 µM) | 32 (≈ 60.8 µM) | 32 (≈ 60.8 µM) | 16 (≈ 30.4 µM) | 16 (≈ 30.4 µM) | 16 (≈ 30.4 µM) | 32 (≈ 60.8 µM) | 32 (≈ 60.8 µM) | 64 (≈ 122 µM) | 32 (≈ 60.8 µM) | –
CN(C)[C@@H]1C(O)=C(C(N)=O)C(=O)[C@@]2(O)C(O)=C3C(=O)c4c(O)cccc4[C@@](C)(O)[C@H]3[C@H](O)[C@@H]12 [Oxytetracycline, reference compound] | 4 (≈ 8.69 µM) | 4 (≈ 8.69 µM) | 4 (≈ 8.69 µM) | 4 (≈ 8.69 µM) | – | – | 4 (≈ 8.69 µM) | 4 (≈ 8.69 µM) | 4 (≈ 8.69 µM) | 4 (≈ 8.69 µM) | – | – | – | – | – | – | 8 (≈ 17.4 µM) | 8 (≈ 17.4 µM) | – | – | mean Ct value (CLAS populations) (CLAS populations; 2 days after treatment): 26.10 b; mean Ct value (CLAS populations) (CLAS populations; 4 days after treatment): 25.61 b; mean Ct value (CLAS populations) (CLAS populations; Before treatment): 25.36 a
CC(C)[C@H](NC(=O)c1c(F)cccc1F)C(=O)Nc1ccc(-n2cnnn2)cc1 [SA1, 2,6-Difluoro-N-[(2S)-3-methyl-1-oxo-1-{[4-(1H-tetrazol-1-yl)phenyl]amino}-2-butanyl] benzamide] | 32 (≈ 79.9 µM) | 16 (≈ 40 µM) | 64 (≈ 160 µM) | 32 (≈ 79.9 µM) | 32 (≈ 79.9 µM) | 16 (≈ 40 µM) | 16 (≈ 40 µM) | 16 (≈ 40 µM) | 32 (≈ 79.9 µM) | 32 (≈ 79.9 µM) | 64 (≈ 160 µM) | 32 (≈ 79.9 µM) | 32 (≈ 79.9 µM) | 16 (≈ 40 µM) | 16 (≈ 40 µM) | 16 (≈ 40 µM) | 32 (≈ 79.9 µM) | 32 (≈ 79.9 µM) | 128 (≈ 320 µM) | 64 (≈ 160 µM) | –
Cc1cc([C@H]2Nc3ccc(C(=O)c4ccccc4)cc3NC3=C2C(=O)CC(C)(C)C3)cc(C)c1O [SA9, 11-(4-hydroxy-3,5-dimethyl-phenyl)-3,3-dimethyl-7-(phenyl-carbonyl)-2,3,4,5,10,11-hexahydro-1H-dibenzo[b,e] [1,4]diazepin-1-one] | 16 (≈ 34.3 µM) | 8 (≈ 17.1 µM) | 32 (≈ 68.6 µM) | 16 (≈ 34.3 µM) | 32 (≈ 68.6 µM) | 16 (≈ 34.3 µM) | 32 (≈ 68.6 µM) | 16 (≈ 34.3 µM) | 64 (≈ 137 µM) | 32 (≈ 68.6 µM) | 64 (≈ 137 µM) | 32 (≈ 68.6 µM) | 32 (≈ 68.6 µM) | 16 (≈ 34.3 µM) | 16 (≈ 34.3 µM) | 16 (≈ 34.3 µM) | 64 (≈ 137 µM) | 32 (≈ 68.6 µM) | 64 (≈ 137 µM) | 32 (≈ 68.6 µM) | –
